Patent publication US4372973A, “16-Amino-postaglandin derivatives, their acid addition salts, and a process for the preparation thereof” (priority 1981, dated 1983)
“Also recorded” adds a separate entry of the source.

Tests used:
[1] = tested on: guinea pig ileum; assay: Smooth muscle contraction, ileum; format: cell-based; settings: PGF2α = 1.00
From the text: (§1) The compounds prepared according to the process of the invention were submitted to several tests developed for detecting the effects of 9α, 11α, 15(S)-trihydroxy-5-cis, 13-trans-prostadienoic acid (PGF2α). From the organs containing smooth muscle guinea pig trachea, ileum and rat uterine horn were used in the trials. The organs were suspended in isotonic salt medium and the potency was registered on the basis of isotonic contractions (Pharmacological Experiments on Isolated Preparations, Ed. W. L. M. Perry and E. S. Livingstone, Edinburgh and London (1970)). The effect exerted on the aggregation of human blood platelets, induced by 5.10^-5 mole/lit. of adenosine-5'-phosphate, was measured in a CHRONO LOG Aggregometer according to A. V. R. Born (J. Physiol. 162, 67 (1962)).

[2] = tested on: rat uterine horn; assay: Smooth muscle contraction, uterus; format: cell-based; settings: PGF2α = 1.00
From the text: as §1

[3] = tested on: guinea pig trachea; assay: Smooth muscle contraction, trachea; format: cell-based; design: key: +: contraction on trachea; O: inactive on trachea; settings: 1 μg/ml
From the text: as §1

[4] = tested on: 15-hydroxy-prostaglandin-dehydrogenase; assay: 15-Hydroxy-prostaglandin-dehydrogenase substrate test; format: in vitro ADME; design: key: substrate; O: no substrate of the enzyme; settings: In this test the concentration of the compounds 1.10^-4 mole/lit.
Description: Beyond these tests it was determined according to P. Tolnay et al. (Acta Biochim. Biophys. Acad. Sci. Hung. 14, 67 (1979)) whether the compounds of the invention are substrates of the 15-hydroxy-prostaglandin-dehydrogenaseenzyme.

[5] = Laxative effect (diarrhea) at abortive doses; format: in vivo, white mice
Description: (§2) The favorable biological properties of the new compounds of the invention are clearly manifested in their abortive effect. The test materials were administered subcutaneously to white mice on the 17th or 18th day of pregnancy, then the deliveries were followed up in the subsequent 48 hours, and the overall status of the excised uterus (scars, embrional residual debris) was evaluated (M. J. R. Harper et al.: Advances in Biosciences 9, 789 (1973)). In groups containing 5 animals the dose effect relationships of PGF2α, its methyl ester, as well as of the new 16-amino-prostaglandin derivatives were determined.

[6] = tested on: human blood platelets; assay: Inhibition of blood platelet aggregation; format: cell-based; settings: 100 μg/ml, induced by 5.10^-5 mole/lit. of adenosine-5'-phosphate
From the text: as §1

[7] = tested on: white mice on the 17th or 18th day of pregnancy; assay: Abortive effect in pregnant mice; format: in vivo; settings: s.c.; for ED50: Mus musculus, sc, 48 h, body weight, white mice, 17th or 18th day of pregnancy, 5 animals per group
Description: as §2

Compound | Smooth muscle contraction relative efficiency Ileum [1] | Smooth muscle contraction relative efficiency Uterus [2] | Smooth muscle contraction Trachea [3] | 15-Hydroxy-prostaglandin-dehydrogenase (substrate or no substrate) [4] | laxative effect ([5]; at abortive doses) | inhibition at 100 µg/mL [6] | ED50 [7] | laxative effect ([5]; mouse, in vivo) | diarrhea ([5]; even at the tenfold of the abortive dose) | abortive potency (in words) ([7]; mice, compared to PGF2α, listed as 9 α, 11 α, 15(ksi)-trihydroxy-16(S)-amino-5-cis, 13-trans-prostadienoic acid met)
CCCC[C@@H](N)C(O)/C=C/[C@@H]1[C@@H](C/C=C\CCCC(=O)OC)[C@@H](O)C[C@H]1O (single isomer, unassigned) | 0.02 | 0.05 | O | O | – | – | – | – | – | –
CCCCC[C@H](O)/C=C/[C@@H]1[C@@H](C/C=C\CCCC(=O)OC)[C@@H](O)C[C@H]1O [PGF2α methyl ester, reference compound] | 0.78 | 1.25 | + | s | exhibit also a laxative effect | 56% | 6 mg/kg | – | – | –
CCCCC[C@H](O)/C=C/[C@@H]1[C@@H](C/C=C\CCCC(=O)O)[C@@H](O)C[C@H]1O [PGF2α, 9α, 11α, 15(S)-trihydroxy-5-cis, 13-trans-prostadienoic acid, reference compound] | 1.00 | 1.00 | + | s | – | 82% | 20 mg/kg | exhibit also a laxative effect | – | –
CCCC[C@H](N)C(O)/C=C/[C@@H]1[C@@H](C/C=C\CCCC(=O)O)[C@@H](O)C[C@H]1O (single isomer, unassigned) | 0.11 | 0.83 | – | O | – | 75% | – | – | – | –
CCCC[C@@H](N)C(O)/C=C/[C@@H]1[C@@H](C/C=C\CCCC(=O)O)[C@@H](O)C[C@H]1O (single isomer, unassigned) | 0.02 | 0.13 | O | O | – | – | – | – | – | –
CCCC[C@H](N)C(O)/C=C/[C@@H]1[C@@H](C/C=C\CCCC(=O)OC)[C@@H](O)C[C@H]1O (single isomer, unassigned) | 0.17 | 0.99 | O | O | – | 52% | 0.1 mg/kg | – | no diarrhea is observed | exceedingly high abortive effect; also recorded: the most active agent
